Laboratory results: patent publication US20250099466A1 (BRISTOL-MYERS SQUIBB COMPANY, priority 2021, published 2025)
Entries after “also recorded” stand apart in the source; their conditions may differ.

Key:
[1] = system: subjects undergoing elective total knee replacement surgery; experiment: Phase 2 study after elective total knee replacement: bleeding events (safety); assay type: in vivo, human; settings: safety set, on-treatment
Text: The principal safety outcome was any bleeding, which was defined as the composite of major, clinically relevant nonmajor, and minimal bleeding. Secondary safety outcomes were: (a) major bleeding, (b) clinically relevant nonmajor bleeding, (c) clinically relevant bleeding, defined as the composite of major and clinically relevant nonmajor bleeding, and (d) minimal bleeding. Bleeding was classified as major if it was overt and associated with a decrease in hemoglobin of 2 g/dL or more or necessitated transfusion of 2 or more units of blood with a temporal association within 24 to 48 hours of the bleed; or if it occurred in a critical area or organ or contributed to death. […] Overt bleeding not meeting the criteria for major bleeding, but that necessitated medical examination or intervention or had clinical consequences, was classified as clinically relevant nonmajor bleeding. Bleeding not meeting the criteria for major or clinically relevant nonmajor bleeding was classified as minimal bleeding (Schulman et al., Definition of major bleeding in clinical investigations of antihemostatic medicinal products in surgical patients. J Thromb Haemost 2010; 8:202-4).
Analysis of safety outcomes was performed in the safety population, which included all randomized patients who received at least one dose of study medication; the time for analysis included the on-treatment period plus 2 days. For each bleeding outcome, the rate in each milvexian group was compared with that in the enoxaparin group with the same methods used for evaluation of the secondary efficacy outcomes. The Kaplan-Meier method was used to assess the time to the first occurrence of any bleeding with milvexian or enoxaparin.
The key secondary objective of the study was to assess the dose-response trend of milvexian for the occurrence of Any Bleeding events during the treatment period. Any Bleeding was defined as the composite of major bleeding according to the International Society on Thrombosis and Haemostasis (ISTH) criteria modified for the surgical setting, clinically relevant nonmajor bleeding events or minimal bleeding events as assessed by the clinical events committee (CEC).

aPTT, TT, and PT = experiment: Ex vivo aPTT, TT and PT in ECAT rabbits; parameters: species or system rabbit
Method: (§1) Integrated blood flow, thrombus weight, aPTT (activated partial thromboplastin time), TT (thrombin time), and PT (prothrombin time) were also measured.

[2] = system: electrically induced carotid artery thrombus (ECAT) in rabbits; experiment: Prevention rabbit model of electrically induced carotid artery thrombus (ECAT); assay type: in vivo
Method: The rabbit ECAT model as described by Wong et al., Nonpeptide factor Xa inhibitors: II.
Male New Zealand white rabbits were anesthetized with ketamine (50 mg/kg+50 mg/kg/h intramuscularly) and xylazine (10 mg/kg+10 mg/kg/h intramuscularly). Thrombosis was induced by electrical stimulation of the control carotid artery for 3 minutes at 4 mA using an external stainless-steel bipolar electrode. Carotid blood flow was measured with an electromagnetic flow probe continuously over a 90-minute period to monitor thrombosis induced occlusion. Integrated carotid blood flow was measured by the area under the flowtime curve (see Wong et al.). In addition, thrombus from the injured artery was removed, blotted twice on a weighing paper to remove residual fluid, and weighed.
To achieve a stable plasma level with minimum experimental variability, compounds were administered by IV infusion. […] The IV infusion was continued throughout the experiment for both models.
as §1

Half-life of milvexian = settings: human, in vivo
[3] = milvexian 50 mg BID, listed as Milvexian
[4] = milvexian 100 mg BID, listed as Milvexian
[5] = milvexian 200 mg once daily, listed as Milvexian
[6] = milvexian all regimens combined
[7] = milvexian combined BID regimens

## C[C@@H]1CCC[C@H](n2cnc(-c3cc(Cl)ccc3-n3cc(Cl)nn3)cc2=O)c2cc(ccn2)-c2c(cnn2C(F)F)NC1=O [milvexian, (5R,9S)-9-(4-(5-chloro-2-(4-chloro-1H-1,2,3-triazol-1-yl)phenyl)-6-oxopyrimidin-1(6H)-yl)-21-(difluoromethyl)-5-methyl-21H-3-aza-1(4,2)-pyridina-2(5,4)-pyrazolacyclononaphan-4-one]
[1]; milvexian 25 mg BID
  Any Bleeding %: 1.4%
  Any Bleeding RR vs Enox: 0.33
  Any Bleeding n: 2 n
  Major+CRNM bleeding %: 0%
  Major+CRNM bleeding n: 0 n
  Minimal Bleeding %: (1.4%)
  Minimal Bleeding RR vs Enox: 0.50
  Minimal Bleeding n: 2 n
[1]; milvexian 25 mg BID, listed as Milvexian
  Any Bleeding %: (1.4%)
[1]; milvexian 25 mg once daily
  Any Bleeding %: 0%
  Any Bleeding n: 0 n
  Major+CRNM bleeding n: 0 n
  Minimal Bleeding n: 0 n
[1]; milvexian 50 mg BID
  Any Bleeding %: 4.7%
  Any Bleeding RR vs Enox: 1.15
  Any Bleeding n: 7 n
  Major+CRNM bleeding %: 1.4%
  Major+CRNM bleeding RR vs Enox: 0.79
  Major+CRNM bleeding n: 2 n
  Minimal Bleeding %: (3.4%)
  Minimal Bleeding RR vs Enox: 1.23
  Minimal Bleeding n: 5 n
[1]; [3]
  Any Bleeding %: (4.7%)
  Major+CRNM bleeding %: (1.4%)
[1]; milvexian 50 mg once daily
  Any Bleeding %: (5.3%)
  Any Bleeding RR vs Enox: 1.17
  Any Bleeding n: 8 n
  Major+CRNM bleeding %: 1.3%
  Major+CRNM bleeding RR vs Enox: 0.68
  Major+CRNM bleeding n: 2 n
  Minimal Bleeding %: (4.0%)
  Minimal Bleeding RR vs Enox: 1.35
  Minimal Bleeding n: 6 n
[1]; milvexian 50 mg once daily, listed as Milvexian
  Major+CRNM bleeding %: (1.3%)
[1]; milvexian 100 mg BID
  Any Bleeding %: 4.7%
  Any Bleeding RR vs Enox: 1.14
  Any Bleeding n: 7 n
  Major+CRNM bleeding %: 0.7%
  Major+CRNM bleeding RR vs Enox: 0.39
  Major+CRNM bleeding n: 1 n
  Minimal Bleeding %: (4.7%)
  Minimal Bleeding RR vs Enox: 1.71
  Minimal Bleeding n: 7 n
[1]; [4]
  Any Bleeding %: (4.7%)
  Major+CRNM bleeding %: (0.7%)
[1]; milvexian 200 mg BID
  Any Bleeding %: (3.4%)
  Any Bleeding RR vs Enox: 0.81
  Any Bleeding n: 5 n
  Major+CRNM bleeding %: 0.7%
  Major+CRNM bleeding RR vs Enox: 0.39
  Major+CRNM bleeding n: 1 n
  Minimal Bleeding %: (2.7%)
  Minimal Bleeding RR vs Enox: 0.96
  Minimal Bleeding n: 4 n
[1]; milvexian 200 mg BID, listed as Milvexian
  Major+CRNM bleeding %: (0.7%)
[1]; milvexian 200 mg once daily
  Any Bleeding %: 6.1%
  Any Bleeding RR vs Enox: 1.51
  Any Bleeding n: 9 n
  Major+CRNM bleeding %: 0.7%
  Major+CRNM bleeding RR vs Enox: 0.40
  Major+CRNM bleeding n: 1 n
  Minimal Bleeding %: (5.4%)
  Minimal Bleeding RR vs Enox: 2.01
  Minimal Bleeding n: 8 n
[1]; [5]
  Any Bleeding %: (6.1%)
  Major+CRNM bleeding %: (0.7%)
[1]; [6]
  Any Bleeding %: 4.1%
  Any Bleeding n: 38 n
  Any bleeding RR (CI) vs enoxaparin: 0.99 (0.53-1.85)
  Clinically relevant non-major Bleeding %: 0.8%
  Clinically relevant non-major Bleeding RR (CI) vs enoxaparin: 0.55 (0.16-1.85)
  Clinically relevant non-major Bleeding n: 7 n
  Major Bleeding n: no major bleeds; also recorded: No CEC adjudicated major bleeding
  Major bleeding or CRNM Bleeding RR (CI) vs enoxaparin: 0.44 (0.14-1.35)
  Major+CRNM bleeding %: 0.8%
  Major+CRNM bleeding n: 7 n
  Minimal Bleeding %: 3.5%
  Minimal Bleeding RR (CI) vs enoxaparin: 1.26 (0.59-2.67)
  Minimal Bleeding n: 32 n
[1]; milvexian all regimens combined, listed as Milvexian
  Major Bleeding n: 0 n
[1]; [7]
  Any Bleeding %: 3.5%
  Any Bleeding n: 21 n
  Any bleeding RR (CI) vs enoxaparin: 0.86 (0.43-1.71)
  Clinically relevant non-major Bleeding %: 0.7%
  Clinically relevant non-major Bleeding RR (CI) vs enoxaparin: 0.49 (0.12-1.96)
  Clinically relevant non-major Bleeding n: 4 n
  Major Bleeding n: 0 n
  Major bleeding or CRNM Bleeding RR (CI) vs enoxaparin: 0.39 (0.11-1.44)
  Major+CRNM bleeding %: 0.7%
  Major+CRNM bleeding n: 4 n
  Minimal Bleeding %: 3.0%
  Minimal Bleeding RR (CI) vs enoxaparin: 1.10 (0.49-2.49)
  Minimal Bleeding n: 18 n
aPTT, TT, and PT; prevention ECAT rabbits
  ex vivo PT: did not alter TT and PT significantly
  ex vivo TT: did not alter TT and PT significantly
  ex vivo aPTT: elevated aPTT significantly at the highest 2 doses
aPTT, TT, and PT; rabbit ECAT
  prolongation of aPTT needed to achieve 50% thrombus weight reduction: 1.6 fold
[2]; highest dose (1+0.67 mg/kg+mg/kg/h IV), prevention ECAT
  thrombus weight reduction: 70±2%
[2]; highest dose (1+0.67 mg/kg+mg/kg/h IV), prevention ECAT, n=6
  integrated blood flow, % of the control level: 76±5%
[2]; prevention ECAT, 0.063+0.04, 0.25+0.17, 1+0.67 mg/kg+mg/kg/h IV
  duration of the patency of the carotid artery: dose-dependent increase in duration of the patency of the carotid artery
[2]; rabbit
  bleeding time: without a significant increase in bleeding time
[2]; total plasma concentration, thrombus weight reduction, prevention ECAT
  antithrombotic 20% maximal effective concentration (EC20): 0.055 µM
Half-life of milvexian
  half-life: ~11 h
